Experimental data reported in patent publication US11135224B2, “Methods of sensitizing estrogen receptor positive (ER+) breast cancer cells to endocrine therapy” (New York University, priority 2018, dated 2021).

Legend:
Runx2 mRNA = Runx2 mRNA levels (RT-qPCR) after CGP57380; assay type: cell-based, human; conditions: treated vs untreated cells
Procedure: Quantitative Real-Time PCR (RT-qPCR) and Analysis: RNA was extracted using Trizol as per the manufacturer's instructions. One microgram of RNA was used for reverse transcription reaction using Promega GoScript, as per the manufacturer's instructions. qRT-PCR was completed using iTaq Universal 2× SYBR Green qPCR master mix (Bio-Rad) and an Applied Biosystems 7500 Fast RT-PCR machine as per the manufacturers' instructions. Fold change was calculated using the 2^−ΔΔCt method.
The biological functions of mRNAs identified as highly eIF4E-dependent in tamoxifen-resistant cells were next assessed. Of these, Runx2 was particularly notable because it encodes a protein with a number of activities that could play a role in tamoxifen resistance, as it is an important inhibitor of estrogen signaling and stimulates oncogenic pathways. […] It was also determined whether Runx2 mRNA requires eIF4E S209 phosphorylation by Mnk1. Cells were untreated or treated with CGP57380, and Runx2 mRNA and protein levels were determined.

[1] = system: eIF4E phosphorylation (MNK1); test: Immunoblot of eIF4E phosphorylation, CGP57380 dose escalation in TamS and TamR cells; assay type: cell-based, human; conditions: escalating doses, 2 hours
Procedure: Endogenous eIF4E was silenced by shRNA. Cell proliferation was assayed by MTT assay with cells treated with DMSO vehicle or 1 μM 4-OHT. Results are from three independent experiments. […] Endogenous eIF4E was silenced by shRNA. Cell proliferation was assayed by MTT assay using conditions described above for FIG. 4. Results from three independent experiments are shown. FIG. 6C is an immunoblot of TamS and TamR cells treated with escalating doses of CGP57380 (GCP) for 2 hours and lysed in NP-40 buffer; equal protein amounts were probed for P-eIF4E, total eIF4E, and β-actin (loading control). […] Cells were treated with DMSO, 1 μM 4-OHT, or 4-OHT and MNK1 inhibitor CGP. […]
Immunoblot Studies: In brief, cells were lysed in NP-40 buffer (50 mM HEPES, pH 7.0, 150 mM NaCl, 2 mM EDTA, 25 mM NaF, 25 mM β-glycerophosphate, 2 mM Na3VO4, 1% IGEPAL, and Complete Mini protease inhibitor cocktail tablet+/−EDTA; Roche) or RIPA lysis buffer (1% Triton X-100, 1% sodium deoxycholate, 0.1% SDS, 150 mM NaCl, 50 mM Tris, pH 7.4, 2 mM Na3VO4, 25 mM β-glycerophosphate, 15 mM NaF, and complete protease inhibitor mix; Roche) and lysate cleared by centrifugation at 13,000 rpm for 10 minutes at 4° C. Lysate protein concentration was determined for each sample using BCA assay. […] Quantitation was performed by determination of the integrated density of the bands using ImageJ software. […]

Nc1ncnc2n[nH]c(Nc3ccc(F)cc3)c12 [CGP57380]
Runx2 mRNA levels (Runx2 mRNA): no statistically significant difference | concentration for complete inhibition of eIF4E phosphorylation [1]: 10 µM
